Experimental data reported in patent US5919668A, “Non-reducing saccharide and its production and use” (Kabushiki Kaisha Hayashibara Seibutsu Kagaku Kenkyujo, priority 1994, dated 1999).

Legend:
[1] = test system: pig kidney trehalase; test: Degradation by pig kidney trehalase; assay type: biochemical; conditions: trehalose, or trehalose formed from PI-PV; pH5.7, 37° C., 18 hours for the latter
Experimental: In order to purify trehalose from respective reaction products, they were decolored, deionized, concentrated and subjected to column fractionation on a strongly-acidic cation exchange of sodium form "XT-1016", followed by recovering high-purity fractions with trehalose contents of 97% or higher. The fractions were then concentrated to about 65% and allowed to standing at 25° C. for 2 days to crystallize out crystalline trehalose hydrate which was then separated and dried in vacuo to obtain a high-purity preparation with a trehalose content of 99% or higher. The yields against respective starting substrates on dry solid basis were as follows: from glycosyl trehalose, 9.5%; from maltosyl trehalose, 14.9%; from maltotriosyl trehalose, 16.0%; from maltotetraosyl trehalose, 18.5%; and from maltopentaosyl trehalose, 17.7%. […] As evident from the above results, the saccharides formed by subjecting alpha-glycosyl trehaloses to the trehalose-releasing enzyme were identified to be trehalose.

[2] = test system: mice; test: Acute toxicity test, oral administration in mice; assay type: in vivo; conditions: for Animal death at the possible highest dose: oral, mice; for LD50: mouse, in vivo, po
Experimental: Acute toxicity tests were conducted on the non-reducing saccharide preparations PI, PII, PIII, PIV and PV prepared in Experiment 4, where they were orally administered to 7 week-old dd mice. […] Thus the LD50 of these saccharides was at least 50 g/kg or higher.
An acute toxicity test was conducted on a high-purity trehalose preparation obtained by the method in Experiment 17, purity of 99.5%, where it was orally administered in mice. […] Thus its LD50 would be briefly 50 g/kg or higher.

[3] = test system: rice alpha-glucosidase; test: Degradation by rice alpha-glucosidase; assay type: biochemical; conditions: for Glucose in degradation product by alpha-glucosidase / Others in degradation product by alpha-glucosidase / Trehalose in degradation product by alpha-glucosidase: pH4.0, 37° C., 18 hours
Experimental: The non-reducing saccharide preparations PI, PII, PIII, PIV and PV as substrates prepared in Experiment 4 were subjected to pig pancreas alpha-amylase, rice alpha-glucosidase and acetone-pulverized rat small intestine enzyme, all of which were products of Sigma Chemical Co., St Louis, Mo., USA, and the degradation products were analyzed on high-performance liquid chromatography for saccharide composition. The reaction by alpha-amylase was carried out by dissolving 10 mg of either substrate in 1 ml of 50 mM phosphate buffer (pH6.9), adding thereto one unit of alpha-amylase and incubating at 37° C. for 18 hours. The reaction by alpha-glucosidase was conducted similarly as in the case of alpha-amylase except that 50 mM acetate buffer (pH4.0) was used. In the case of acetone-pulverized rat small intestine enzyme, the reaction was conducted similarly as in the case of alpha-amylase except that 50 mM maleic acid buffer (pH6.0) was used.

OC[C@H]1O[C@H](O[C@H]2O[C@H](CO)[C@@H](O[C@H]3O[C@H](CO)[C@@H](O[C@H]4O[C@H](CO)[C@@H](O[C@H]5O[C@H](CO)[C@@H](O)[C@H](O)[C@H]5O)[C@H](O)[C@H]4O)[C@H](O)[C@H]3O)[C@H](O)[C@H]2O)[C@H](O)[C@@H](O)[C@@H]1O [PIII, alpha-maltotriosyl trehalose]
Degradation by pig kidney trehalase (in words) [1]: degradable into glucose by the trehalase | Animal death at the possible highest dose [2]: no animal death was observed | Degradation by alpha-glucosidase (in words) [3]: degradable | Glucose in degradation product by alpha-glucosidase [3]: 61.7% | Others in degradation product by alpha-glucosidase [3]: 0.2% | Trehalose in degradation product by alpha-glucosidase [3]: 38.1%

OC[C@H]1O[C@H](O[C@H]2O[C@H](CO)[C@@H](O[C@H]3O[C@H](CO)[C@@H](O)[C@H](O)[C@H]3O)[C@H](O)[C@H]2O)[C@H](O)[C@@H](O)[C@@H]1O [PI, alpha-glucosyl trehalose]
Degradation by pig kidney trehalase (in words) [1]: degradable into glucose by the trehalase | Animal death at the possible highest dose [2]: no animal death was observed | Degradation by alpha-glucosidase (in words) [3]: degradable | Glucose in degradation product by alpha-glucosidase [3]: 36.5% | Others in degradation product by alpha-glucosidase [3]: 0.5% | Trehalose in degradation product by alpha-glucosidase [3]: 63.0%

OC[C@H]1O[C@H](O[C@H]2O[C@H](CO)[C@@H](O[C@H]3O[C@H](CO)[C@@H](O[C@H]4O[C@H](CO)[C@@H](O[C@H]5O[C@H](CO)[C@@H](O[C@H]6O[C@H](CO)[C@@H](O)[C@H](O)[C@H]6O)[C@H](O)[C@H]5O)[C@H](O)[C@H]4O)[C@H](O)[C@H]3O)[C@H](O)[C@H]2O)[C@H](O)[C@@H](O)[C@@H]1O [PIV, alpha-maltotetraosyl trehalose]
Degradation by pig kidney trehalase (in words) [1]: degradable into glucose by the trehalase | LD50 [2]: at least 50 g/kg | Animal death at the possible highest dose [2]: no animal death was observed | Degradation by alpha-glucosidase (in words) [3]: degradable | Glucose in degradation product by alpha-glucosidase [3]: 69.5% | Others in degradation product by alpha-glucosidase [3]: 0.3% | Trehalose in degradation product by alpha-glucosidase [3]: 30.2%

OC[C@H]1O[C@H](O[C@H]2O[C@H](CO)[C@@H](O[C@H]3O[C@H](CO)[C@@H](O[C@H]4O[C@H](CO)[C@@H](O[C@H]5O[C@H](CO)[C@@H](O[C@H]6O[C@H](CO)[C@@H](O[C@H]7O[C@H](CO)[C@@H](O)[C@H](O)[C@H]7O)[C@H](O)[C@H]6O)[C@H](O)[C@H]5O)[C@H](O)[C@H]4O)[C@H](O)[C@H]3O)[C@H](O)[C@H]2O)[C@H](O)[C@@H](O)[C@@H]1O [PV, alpha-maltopentaosyl trehalose]
Degradation by pig kidney trehalase (in words) [1]: degradable into glucose by the trehalase | LD50 [2]: at least 50 g/kg | Animal death at the possible highest dose [2]: no animal death was observed | Degradation by alpha-glucosidase (in words) [3]: degradable | Glucose in degradation product by alpha-glucosidase [3]: 71.4% | Others in degradation product by alpha-glucosidase [3]: 0.3% | Trehalose in degradation product by alpha-glucosidase [3]: 28.3%

OC[C@H]1O[C@H](O[C@H]2O[C@H](CO)[C@@H](O[C@H]3O[C@H](CO)[C@@H](O[C@H]4O[C@H](CO)[C@@H](O)[C@H](O)[C@H]4O)[C@H](O)[C@H]3O)[C@H](O)[C@H]2O)[C@H](O)[C@@H](O)[C@@H]1O [PII, alpha-maltosyl trehalose]
Degradation by pig kidney trehalase (in words) [1]: degradable into glucose by the trehalase | Animal death at the possible highest dose [2]: no animal death was observed | Degradation by alpha-glucosidase (in words) [3]: degradable | Glucose in degradation product by alpha-glucosidase [3]: 52.1% | Others in degradation product by alpha-glucosidase [3]: 0.3% | Trehalose in degradation product by alpha-glucosidase [3]: 47.6%
